Test results: patent US12441959B2, “Composition containing organic ammonium salt” (MIYOSHI OIL & FAT CO., LTD., priority 2019, dated 2025)

Assay: Surface resistance measurement with high resistance meter
Type: physicochemical
Settings: 0.7 g (in terms of anhydride) applied
Protocol: Surface resistance measurements were performed on compound 1 that had not undergone emulsification adjustment and on glycerin and the emulsification composition that had already undergone emulsification adjustment. In the comparison of compound 1 that had not undergone emulsification adjustment and glycerin, 0.7 g (content in terms of anhydride) of each of the compound 1 and glycerin was applied to an artificial leather made of polyurethane, followed by using a high resistance meter (Stack TR-2 by Tokyo Electronics Co., Ltd.) to measure a surface resistance value. Further, in the comparison by the emulsified composition, 0.05 g of the emulsification compositions shown in Table 11 were each applied to an artificial leather made of polyurethane to measure a surface resistance value using a high resistance meter.
Further, 0.7 g (content in terms of anhydride) of sodium lactate was applied to an artificial leather made of polyurethane before drying the same to volatilize water. As the result, the coating surface was turned into a solid state whose surface resistance value, measured in a similar manner as above, turned out to be 2×10^8Ω; confirmed were a non-volatility of the compound 1 (lower than 1×10^8Ω) and an effect of liquidity at 25° C. (capability of evenly coating a coating object).

surface resistance value (not emulsified, liquid state at measurement)	Structure (SMILES)	surface resistance value (dried to volatilize water, solid state)
5×10^8 Ω	OCC(O)CO [glycerin]	
	CC(O)C(=O)[O-].[Na+] (centres unmarked) [sodium lactate]	2×10^8 Ω
